Values quoted from earlier work, collected in patent US20100055181A1, “CONTROLLED RELEASE DOSAGE FORMS OF ZOLPIDEM” (LUPIN LIMITED, priority 2006, published 2010).

Settings: hypnotic action, oral, conventional forms

For `Cc1ccc(-c2nc3ccc(C)cn3c2CC(=O)N(C)C)cc1` [zolpidem], the duration of action is given as “up to 6 hours”.
